One test deals with T1, GBA3 (Homo sapiens, UniProt Q9H227).
T1 sequence (Q9H227 1-469): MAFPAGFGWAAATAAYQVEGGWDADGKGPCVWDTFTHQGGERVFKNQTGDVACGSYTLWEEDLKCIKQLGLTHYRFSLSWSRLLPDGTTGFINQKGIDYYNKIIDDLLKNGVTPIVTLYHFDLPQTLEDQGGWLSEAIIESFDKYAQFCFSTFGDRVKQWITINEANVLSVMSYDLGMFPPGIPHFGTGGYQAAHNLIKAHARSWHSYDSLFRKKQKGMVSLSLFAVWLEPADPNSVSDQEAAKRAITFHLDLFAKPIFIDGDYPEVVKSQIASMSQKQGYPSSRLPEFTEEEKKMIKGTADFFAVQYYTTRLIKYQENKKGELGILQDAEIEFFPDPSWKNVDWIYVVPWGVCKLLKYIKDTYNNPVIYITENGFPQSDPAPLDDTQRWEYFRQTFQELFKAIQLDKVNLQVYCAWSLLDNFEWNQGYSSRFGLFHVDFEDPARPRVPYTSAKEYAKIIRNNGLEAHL

Test [1] addresses T2, recombinant human GBA1 (rhGBA1) (Homo sapiens, UniProt P04062, R534H).
T2 sequence (P04062 40-536 R534H): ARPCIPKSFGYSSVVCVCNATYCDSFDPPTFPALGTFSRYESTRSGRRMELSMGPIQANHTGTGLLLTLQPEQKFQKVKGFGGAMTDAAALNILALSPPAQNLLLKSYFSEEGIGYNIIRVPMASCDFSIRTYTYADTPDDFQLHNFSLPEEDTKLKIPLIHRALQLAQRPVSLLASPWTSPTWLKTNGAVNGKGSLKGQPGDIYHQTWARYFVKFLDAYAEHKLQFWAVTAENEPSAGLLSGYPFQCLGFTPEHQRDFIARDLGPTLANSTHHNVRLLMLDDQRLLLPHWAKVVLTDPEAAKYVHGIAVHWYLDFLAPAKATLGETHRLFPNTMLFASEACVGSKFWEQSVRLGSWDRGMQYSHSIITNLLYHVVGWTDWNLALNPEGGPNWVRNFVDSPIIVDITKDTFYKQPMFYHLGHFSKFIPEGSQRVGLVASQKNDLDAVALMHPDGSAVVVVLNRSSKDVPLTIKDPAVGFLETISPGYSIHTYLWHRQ
The experiment in a line: fluorogenic substrate assay (4-MU-β-D-Glu hydrolysis), rhGBA1.
Experimental: Next, all new compounds were screened on their GBA1/GBA2/GBA3 inhibitory potency in a fluorogenic substrate assay (enzyme‐mediated hydrolysis of the fluorogenic substrate, 4‐methylumbelliferyl β‐D‐glucopyranoside; 4‐MU‐β‐D‐Glu). […] The IC50 values were determined after incubation of each individual compound with either recombinant human GBA1 (rhGBA1) or lysates of HEK293T cells overexpressing GBA2 or GBA3.
All assays were performed in 96-well plates (Greiner, black, flat-bottomed) at 37 °C. For GBA1, 3.5 ng of rhGBA1 (Imiglucerase,
Sanofi Genzyme) was dissolved in 12.5 μL McIlvaine buffer (150 mM citric acid-Na2HPO4, pH 5.2), supplemented with 0.1%
(v/v) Triton X-100, and 0.2% (w/v) sodium taurocholate, 0.1% (w/v) bovine serum albumin (BSA). Lysates of GBA1/GBA2 KO
HEK293T cells overexpressing GBA2 or GBA3 were prepared by sonication on ice with Polytron PT 1300D son icator
(Kinematica) in potassium phosphate buffer (25 mM K2HPO4/KH2PO4, pH 6.5, supplemented with 0.1% (v/v) Triton X-100 and protease inhibitor cocktail (EDTA-free, Roche)). The lysates were diluted to 12.5 μL in McIlvaine buffer (150 mM, pH 5.8 for
GBA2 or pH 6.0 for GBA3) supplemented with 0.1% (w/v) bovine serum albumin (BSA). The enzymes were incubated with 12.5
μL solution of inhibitors in McIlvaine buffer (150 mM, pH appropriate for each enzyme, final concentration 1% DMSO) at 37 °C
for 30 minutes (-configured aziridines and ABP 3) or 3 hours (epoxides and -configured aziridines). This was followed by
incubation of the samples with 100 μL of fluorogenic substrate mixtures for 30 minutes. The substrate mixtures diluted in
McIlvaine buffer (supplemented with 0.1% (w/v) BSA) at optimal pH for each enzyme were as follows: GBA1, 3.75 mM 4-MU-
-D-glucopyranoside (Glycosynth) at pH 5.2, supplemented with 0.2% (w/v) sodium taurocholate, 0.1% (v/v) Triton X-100, 0.1%
(w/v) bovine serum albumin (BSA); GBA2, 4-MU--D-glucopyranoside (3.75 mM) at pH 5.8; GBA3, 4-MU--D-glucopyranoside
(3.75 mM) at pH 6.0. After stopping the enzyme reaction with 200 μL 1 M NaOH-glycine (pH 10.3), 4-methylumbelliferone
fluorescence was measured with a fluorimeter LS55 (Perkin Elmer) with λEX 366 nm and λEM 445 nm. Enzyme activities were
determined by subtraction of background (measured for incubations without enzyme), normalized with enzyme activity of the
control sample (vehicle incubation) and curve-fitted to inhibitor concentrations using GraphPad Prism 9.0 software by the
[inhibitor] vs. response - variable slope (four parameters) method to determine IC 50 values.
values from triplicate or duplicate experiments (n = 3 biological replicates) and error ranges indicate standard deviation (SD).

The next test deals with T3, GBA2 (Homo sapiens, UniProt Q9HCG7).
T3 sequence (Q9HCG7 1-927): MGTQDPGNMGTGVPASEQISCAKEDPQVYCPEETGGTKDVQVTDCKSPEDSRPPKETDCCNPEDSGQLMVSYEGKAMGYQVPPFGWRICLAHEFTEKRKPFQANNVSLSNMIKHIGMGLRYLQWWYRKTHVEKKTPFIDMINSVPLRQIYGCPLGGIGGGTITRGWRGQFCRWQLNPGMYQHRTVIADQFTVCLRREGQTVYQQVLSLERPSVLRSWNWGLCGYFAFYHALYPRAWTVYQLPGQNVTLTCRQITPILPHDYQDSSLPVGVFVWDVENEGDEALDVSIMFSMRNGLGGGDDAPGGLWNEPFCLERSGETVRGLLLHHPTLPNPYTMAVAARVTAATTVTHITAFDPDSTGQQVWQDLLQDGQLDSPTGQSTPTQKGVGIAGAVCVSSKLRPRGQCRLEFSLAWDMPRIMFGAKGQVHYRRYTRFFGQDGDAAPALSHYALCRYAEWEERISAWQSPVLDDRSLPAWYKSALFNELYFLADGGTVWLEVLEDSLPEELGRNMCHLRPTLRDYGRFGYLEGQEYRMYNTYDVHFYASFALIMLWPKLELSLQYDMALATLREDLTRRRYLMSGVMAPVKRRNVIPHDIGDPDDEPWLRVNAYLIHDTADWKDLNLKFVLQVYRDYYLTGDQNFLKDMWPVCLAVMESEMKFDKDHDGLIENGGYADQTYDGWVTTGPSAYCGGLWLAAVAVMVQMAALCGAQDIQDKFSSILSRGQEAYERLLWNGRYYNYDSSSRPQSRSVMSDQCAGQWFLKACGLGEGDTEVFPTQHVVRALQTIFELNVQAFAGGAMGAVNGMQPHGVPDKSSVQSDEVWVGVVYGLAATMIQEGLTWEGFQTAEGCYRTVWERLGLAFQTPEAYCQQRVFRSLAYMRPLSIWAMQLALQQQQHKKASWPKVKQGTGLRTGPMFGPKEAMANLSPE

For test [2], the system named is endogenous GBA1 and overexpressed human GBA2 and GBA3. Description: ABP labeling (ABPP) in lysates of GBA2/GBA3 overexpressing HEK293T cells, selectivity pattern. The test is classed as binding. The note with it: pH 6.0, 30 min. As for the experimental part:
As a negative control, lysates of HEK293T cells with knocked‐out (KO) expression of GBA1 and GBA2 were incubated with a high concentration of each ABP. The observed selectivity patterns of most compounds were in line with the results of the fluorogenic substrate assay except for 50, which labeled GBA1 less potently than expected. […] For instance, besides labeling GBA2 and GBA3 (104.6 kDa and 53.6 kDa respectively), ABP 5 labels three major off‐target proteins (~45 kDa, ~55 kDa, and ~65 kDa), and these bands appear also in the experiments with the other deoxygenated ABPs (Figure 3B). Possibly, the deoxygenated ABPs are more hydrophobic compared to ABPs 1 and 3, causing them to more readily associate with hydrophobic protein patches and subsequently engage in reactions.
described previously.6,16
protease inhibitor cocktail (EDTA-free, Roche)).
The enzymes were incubated with 12.5
The substrate mixtures diluted in
with BODIPY fluorescent ABP 2.

Molecules are shown by their SMILES.

With `CN1/C(=C/C=C/C=C/C2=[N+](CCCCCC(=O)NCc3cn(CCCCCCCCN4[C@@H]5[C@H](CO)[C@@H](O)[C@H](O)[C@@H](O)[C@@H]54)nn3)c3ccccc3C2(C)C)C(C)(C)c2ccccc21` (stereo partly drawn) [Compound 1], the IC50 against GBA3 was determined as 31 ± 5 nM; in test [1], 0.54 ± 0.21 nM; against GBA2 it was 145 ± 26 nM. Further, the “target glucosidases labeled by the ABP” value in test [2] was “modifies all three GBAs”.
With `CN1/C(=C/C=C/C=C/C2=[N+](CCCCCC(=O)NCc3cn(C[C@@H]4[C@@H](O)[C@H](O)[C@@H](O)[C@@H]5O[C@H]45)nn3)c3ccccc3C2(C)C)C(C)(C)c2ccccc21` [Compound 3], the values for the IC50 (against GBA3; in test [1]; at GBA2) were over 15000 nM, 42 ± 4 nM and over 15000 nM, respectively.
As for `CN1/C(=C/C=C/C=C/C2=[N+](CCCCCC(=O)NCc3cn(CCCCCCCCN4[C@@H]5[C@H](CO)C[C@H](O)[C@@H](O)[C@@H]54)nn3)c3ccccc3C2(C)C)C(C)(C)c2ccccc21` (stereo partly drawn) [Compound 4], the IC50 on GBA3 was 260 ± 60 nM; in test [1], 260 ± 10 nM; on GBA2, 240 ± 30 nM. In addition, the “target glucosidases labeled by the ABP” value in test [2] is “label all three target glucosidases”.
As for `CN1/C(=C/C=C/C=C/C2=[N+](CCCCCC(=O)NCc3cn(CCCCCCCCN4[C@@H]5[C@H](CO)C[C@H](O)C[C@@H]54)nn3)c3ccccc3C2(C)C)C(C)(C)c2ccccc21` (stereo partly drawn) [Compound 5], the IC50 against GBA3 came to 1230 ± 80 nM; in test [1], 32000 ± 3000 nM; at GBA2 it was 230 ± 10 nM. Further, the “target glucosidases labeled by the ABP” value in test [2] is recorded as “GBA2 and, to a lesser extent, GBA3”.

For the origin of these results see PMC11639629, “Synthesis and Biological Evaluation of Deoxycyclophellitols as Human Retaining β‐Glucosidase Inhibitors” (Chemistry (Weinheim an Der Bergstrasse, Germany), 2024).
